Assay results from patent US20230212174A1, “PYRROLO[2,1-F][1,2,4]TRIAZINE DERIVATIVE AND USE THEREOF” (Tencent Technology (Shenzhen) Company Limited, priority 2021, published 2023).

Target: T1, TTK (Homo sapiens, UniProt P33981)
T1 sequence (P33981 1-857): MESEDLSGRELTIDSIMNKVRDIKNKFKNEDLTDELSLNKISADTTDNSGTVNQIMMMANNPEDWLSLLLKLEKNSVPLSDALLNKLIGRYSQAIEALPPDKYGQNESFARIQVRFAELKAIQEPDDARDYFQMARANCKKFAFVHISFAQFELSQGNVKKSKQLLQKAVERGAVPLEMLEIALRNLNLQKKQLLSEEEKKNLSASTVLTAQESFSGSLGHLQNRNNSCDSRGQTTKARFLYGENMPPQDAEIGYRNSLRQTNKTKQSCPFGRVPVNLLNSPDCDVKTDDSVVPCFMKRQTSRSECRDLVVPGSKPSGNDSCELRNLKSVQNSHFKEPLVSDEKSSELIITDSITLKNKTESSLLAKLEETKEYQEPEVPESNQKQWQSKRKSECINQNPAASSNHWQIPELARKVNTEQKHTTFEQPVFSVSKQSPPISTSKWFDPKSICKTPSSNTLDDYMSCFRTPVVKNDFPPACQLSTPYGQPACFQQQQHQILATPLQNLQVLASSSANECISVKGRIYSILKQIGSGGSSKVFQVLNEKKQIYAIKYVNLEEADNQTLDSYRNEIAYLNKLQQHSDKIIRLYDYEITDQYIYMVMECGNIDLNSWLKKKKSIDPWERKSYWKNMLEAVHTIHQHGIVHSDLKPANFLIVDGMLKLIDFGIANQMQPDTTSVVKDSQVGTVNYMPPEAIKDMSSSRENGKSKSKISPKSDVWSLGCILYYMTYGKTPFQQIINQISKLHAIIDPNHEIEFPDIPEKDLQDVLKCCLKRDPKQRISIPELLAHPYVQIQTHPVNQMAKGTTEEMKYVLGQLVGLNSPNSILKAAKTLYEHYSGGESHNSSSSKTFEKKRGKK
Experiment: TTK inhibitory activity (kinase reaction, Fluorescein-PolyGT substrate, antibody/EDTA stop, Envision read)
Assay type: biochemical
Conditions: 0.5 nM TTK, 7 uM ATP, 0.2 uM Fluorescein-PolyGT, 28° C., 30 min
Experimental: The experiment aims to detect the inhibitory activity of the compound of the present disclosure on TTK in vitro.
The TTK kinase reaction system was 10 μL, including 0.5 nM TTK, test compound over a concentration gradient, 10 mM MgCl2, 2 mM DTT, 7 uM ATP, 0.2 uM Fluorescein-PolyGT (Fluorescein-Poly Glu:Tyr (4:1)), 0.01% Triton X-100, 0.01% BSA, and 50 mM HEPES pH 7.5. The enzyme and the test compound of the present disclosure were added into a 384-well plate, and then a substrate and ATP were added. Then the system was incubated at a constant temperature of 28° C. 30 min after the reaction, 10 μL of a mixed solution of a corresponding antibody and EDTA was added to terminate the reaction, and incubated for 60 min at a constant temperature of 28° C. The data was read on Envision instrument. A curve was plotted with the Log concentration of the inhibitor as the X axis and the inhibition rate as the Y axis, and IC50 was calculated by Y=Bottom+(Top-Bottom)/(1+(IC50/X)^HillSlope).

Compound | IC50
CCOc1cc(-c2nncn2C)ccc1Nc1ncc2ccc(C3=CCCC3)n2n1 [Compound 12] | 8.7 nM
CCOc1cc(-c2nncn2C)ccc1Nc1ncc2ccc(C3CCCC3)n2n1 [Compound 13] | 7.1 nM
CCOc1cc(-c2nncn2C)ccc1Nc1nc(NCC(C)(C)C)c2cccn2n1 [Compound 1] | 27 nM
CCOc1cc(-c2nncn2C)ccc1Nc1nc(NC2CCCCC2)c2c(Cl)ccn2n1 [Compound 10] | 5.5 nM
CCOc1cc(-c2nncn2C)ccc1Nc1ncc2ccc(C3CCOCC3)n2n1 [Compound 17] | 6.3 nM
CCOc1cc(-c2nncn2C)ccc1Nc1ncc2ccc(-c3cnn(C)c3)n2n1 [Compound 18] | 2.1 nM
CCOc1cc(-c2nncn2C)ccc1Nc1nc(NC2CCOCC2)c2cccn2n1 [Compound 4] | 4 nM
CCOc1cc(-c2nncn2C)ccc1Nc1ncc2ccc(C3CCCCC3)n2n1 [Compound 15] | 4.2 nM
CCOc1cc(-c2nncn2C)ccc1Nc1nc(NC2CCCC2)c2cccn2n1 [Compound 3] | 8.9 nM
